Reference: the supplement of paper PMC10307832

Legend:
Experiment in all cases: relative viability (nuclei count vs DMSO), 5 days (fraction); higher = more cells survive
[1] = compound: COC1=CC=C(C=C1)CN2C=CC3=C2C=C(C=C3)C(=O)NO + COc1cccc2cc(-c3nc([C@H]4CC[C@H](C(=O)O)CC4)n4ncnc(N)c34)[nH]c12 [OSI-027] (partner 0.5 µM)
Outline: (§1)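 Five library-drug doses in √10 steps were combined with a fixed anchor-drug dose, or a single drug was given alone, by pin tool to lung cancer cell lines in 1536-well plates the day after seeding. Nuclei were stained and counted after 5 days. Relative viability is the nuclei count in treated wells over that in vehicle wells, taken as the median of duplicate plates.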

[2] = compound: COC1=CC=C(C=C1)CN2C=CC3=C2C=C(C=C3)C(=O)NO + CS(=O)(=O)CCNCc1ccc(-c2ccc3ncnc(Nc4ccc(OCc5cccc(F)c5)c(Cl)c4)c3c2)o1 [Lapatinib] (partner 2 µM)
Outline: as §1

[3] = compound: COC1=CC=C(C=C1)CN2C=CC3=C2C=C(C=C3)C(=O)NO + Nc1nc2[nH]cc(CCc3ccc(C(=O)N[C@@H](CCC(=O)O)C(=O)O)cc3)c2c(=O)[nH]1 [Pemetrexed] (partner 0.2 µM)
Outline: as §1

[4] = compound: COC1=CC=C(C=C1)CN2C=CC3=C2C=C(C=C3)C(=O)NO + Nc1ncn([C@H]2C[C@H](O)[C@@H](CO)O2)c(=O)n1 [Decitabine] (partner 2 µM)
Outline: as §1

[5] = compound: COC1=CC=C(C=C1)CN2C=CC3=C2C=C(C=C3)C(=O)NO + O=C(CCCCCCC(=O)Nc1ccccc1)NO [Vorinostat] (partner 1 µM)
Outline: as §1

Work on SW 1573 yielded a relative viability ([1]; first compound 0.253 µM) of 0.616, a relative viability ([1]; first compound 0.8 µM) of 0.785 and a relative viability ([1]; first compound 2.53 µM) of 0.519. For the same cell line, the relative viability ([1]; first compound 8 µM) was 0.396, the relative viability ([2]; first compound 0.253 µM) was 1.07 and the relative viability ([2]; first compound 0.8 µM) was 1.36. The relative viability ([2]; first compound 2.53 µM) was 1.2, the relative viability ([2]; first compound 8 µM) was 0.859 and the relative viability ([3]; first compound 0.253 µM) was 0.906. For the same cell line, the relative viability ([3]; first compound 0.8 µM) was 0.82, the relative viability ([3]; first compound 2.53 µM) was 0.853 and the relative viability ([3]; first compound 8 µM) was 0.803. It also gave a relative viability ([4]; first compound 0.253 µM) of 0.525, a relative viability ([4]; first compound 0.8 µM) of 0.59 and a relative viability ([4]; first compound 2.53 µM) of 0.471. It also gave a relative viability ([4]; first compound 8 µM) of 0.258, a relative viability ([5]; first compound 0.253 µM) of 0.76 and a relative viability ([5]; first compound 0.8 µM) of 0.804. For the same cell line, the relative viability ([5]; first compound 2.53 µM) was 0.818 and the relative viability ([5]; first compound 8 µM) was 0.622.
